From ChEMBL document CHEMBL1201862, “PubChem BioAssay data set” (2004)
Several values for one entry are separate records, joined by “and”; a condition that tells them apart may be missing. Identical values can stand only once. Activity calls are given as the source filed them.

Tests used:
Cytochrome P450 1A2 = molecular target: T1, Cytochrome P450 1A2 (Homo sapiens, UniProt P05177);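 also: PubChem cytochrome P450 panel assay, CYP1A2 panel member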
T1 sequence (P05177 whole entry): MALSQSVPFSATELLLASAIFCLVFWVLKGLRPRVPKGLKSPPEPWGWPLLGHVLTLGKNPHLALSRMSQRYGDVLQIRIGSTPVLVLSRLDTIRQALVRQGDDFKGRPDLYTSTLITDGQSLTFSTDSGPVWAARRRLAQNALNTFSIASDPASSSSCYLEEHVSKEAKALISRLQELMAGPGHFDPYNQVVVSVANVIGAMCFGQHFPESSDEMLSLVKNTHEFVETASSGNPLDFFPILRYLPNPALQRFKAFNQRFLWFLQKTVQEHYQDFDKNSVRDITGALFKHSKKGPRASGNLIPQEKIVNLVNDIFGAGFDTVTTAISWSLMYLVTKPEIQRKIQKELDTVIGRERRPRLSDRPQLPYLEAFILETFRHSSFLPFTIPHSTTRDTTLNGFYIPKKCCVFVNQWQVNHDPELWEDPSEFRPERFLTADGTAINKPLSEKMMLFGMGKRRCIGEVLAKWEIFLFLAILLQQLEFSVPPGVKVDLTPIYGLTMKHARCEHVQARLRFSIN

Cytochrome P450 2D6 = Cytochrome P450 2D6 (Homo sapiens, UniProt P10635);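 also: CYP2D6 member of a cytochrome P450 panel assay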
Cytochrome P450 2D6, sequence (P10635 whole entry): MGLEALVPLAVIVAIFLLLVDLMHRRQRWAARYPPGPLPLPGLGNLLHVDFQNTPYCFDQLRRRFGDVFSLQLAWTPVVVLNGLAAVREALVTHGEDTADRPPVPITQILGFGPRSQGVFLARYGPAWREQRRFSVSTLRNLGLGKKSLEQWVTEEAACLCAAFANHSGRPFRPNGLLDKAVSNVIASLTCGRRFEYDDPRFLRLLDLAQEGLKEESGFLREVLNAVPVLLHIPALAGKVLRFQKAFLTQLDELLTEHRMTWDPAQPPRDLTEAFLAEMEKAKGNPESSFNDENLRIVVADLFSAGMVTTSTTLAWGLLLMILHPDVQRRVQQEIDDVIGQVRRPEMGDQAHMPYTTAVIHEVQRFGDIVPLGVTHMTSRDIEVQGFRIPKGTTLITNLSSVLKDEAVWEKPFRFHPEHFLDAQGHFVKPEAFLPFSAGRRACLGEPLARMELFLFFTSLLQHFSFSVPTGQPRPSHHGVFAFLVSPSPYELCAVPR

Cytochrome P450 2C9 = Cytochrome P450 2C9 (Homo sapiens, UniProt P11712)
Cytochrome P450 2C9, sequence (P11712 whole entry): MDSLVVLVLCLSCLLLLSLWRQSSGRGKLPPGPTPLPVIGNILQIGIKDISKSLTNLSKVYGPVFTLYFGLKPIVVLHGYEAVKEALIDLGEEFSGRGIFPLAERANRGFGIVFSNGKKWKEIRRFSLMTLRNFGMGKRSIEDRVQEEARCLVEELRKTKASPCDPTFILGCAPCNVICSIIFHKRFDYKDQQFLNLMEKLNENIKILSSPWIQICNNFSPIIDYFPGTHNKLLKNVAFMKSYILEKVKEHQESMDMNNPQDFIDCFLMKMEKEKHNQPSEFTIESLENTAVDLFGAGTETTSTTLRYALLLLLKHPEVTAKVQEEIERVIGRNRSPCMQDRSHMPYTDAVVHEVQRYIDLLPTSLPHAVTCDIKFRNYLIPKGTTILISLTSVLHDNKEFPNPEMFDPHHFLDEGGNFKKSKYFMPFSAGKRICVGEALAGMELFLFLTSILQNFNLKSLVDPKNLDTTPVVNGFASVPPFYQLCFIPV

Cytochrome P450 3A4 = Cytochrome P450 3A4 (Homo sapiens, UniProt P08684);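 also: CYP3A4 tested as one member of a cytochrome P450 panel screen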
Cytochrome P450 3A4, sequence (P08684 whole entry): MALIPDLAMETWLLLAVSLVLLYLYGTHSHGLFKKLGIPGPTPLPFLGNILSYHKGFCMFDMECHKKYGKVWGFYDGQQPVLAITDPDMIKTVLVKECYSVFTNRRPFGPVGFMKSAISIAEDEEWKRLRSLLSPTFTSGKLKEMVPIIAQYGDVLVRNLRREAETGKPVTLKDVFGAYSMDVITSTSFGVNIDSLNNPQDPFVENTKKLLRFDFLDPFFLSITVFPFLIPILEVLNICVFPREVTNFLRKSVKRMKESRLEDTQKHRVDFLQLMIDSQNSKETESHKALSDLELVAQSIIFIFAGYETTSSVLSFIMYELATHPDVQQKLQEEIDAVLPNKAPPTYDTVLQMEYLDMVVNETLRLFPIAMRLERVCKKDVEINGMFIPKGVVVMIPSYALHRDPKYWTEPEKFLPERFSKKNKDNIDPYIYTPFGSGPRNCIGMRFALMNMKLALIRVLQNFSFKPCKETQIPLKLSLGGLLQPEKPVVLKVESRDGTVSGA

[1] = molecular target: T2, Corticotropin-releasing factor receptor 2/Corticotropin-releasing factor-binding protein (Homo sapiens, UniProt P24387+Q13324); experiment: activators of CRF receptor 2 with binding protein – uHTS hits, confirmation (AID 602473); assay type: functional; conditions: read-out: EC50_Mean
T2 sequence (Q13324 whole entry): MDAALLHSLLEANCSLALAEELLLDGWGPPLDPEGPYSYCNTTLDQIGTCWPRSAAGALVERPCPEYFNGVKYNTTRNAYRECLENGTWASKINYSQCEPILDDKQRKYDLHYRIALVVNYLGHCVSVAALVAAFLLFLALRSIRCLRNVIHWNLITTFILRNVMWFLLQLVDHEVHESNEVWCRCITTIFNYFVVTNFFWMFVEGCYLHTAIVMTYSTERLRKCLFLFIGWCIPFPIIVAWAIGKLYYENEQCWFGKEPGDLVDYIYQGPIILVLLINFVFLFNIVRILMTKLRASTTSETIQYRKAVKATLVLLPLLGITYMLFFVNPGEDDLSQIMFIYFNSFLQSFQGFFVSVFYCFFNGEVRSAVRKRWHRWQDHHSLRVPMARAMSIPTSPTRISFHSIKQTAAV
T2 sequence (P24387 whole entry): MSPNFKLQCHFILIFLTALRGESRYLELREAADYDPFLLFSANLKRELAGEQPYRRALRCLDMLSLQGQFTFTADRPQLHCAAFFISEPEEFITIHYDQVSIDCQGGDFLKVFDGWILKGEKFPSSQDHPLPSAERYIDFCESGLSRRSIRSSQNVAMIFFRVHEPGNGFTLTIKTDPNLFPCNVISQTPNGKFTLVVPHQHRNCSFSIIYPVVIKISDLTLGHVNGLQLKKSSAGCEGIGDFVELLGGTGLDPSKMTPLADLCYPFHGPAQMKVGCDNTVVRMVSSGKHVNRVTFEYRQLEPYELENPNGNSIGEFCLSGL

[2] = Trypanosoma cruzi growth suppression in host cells – NIH3T3 host cells, beta-gal luminescence, confirmation (AID 2044); assay type: functional, cell-based;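 also: intracellular parasites grown in NIH/3T3 mouse fibroblasts as host cells; luminescent beta-galactosidase reporter signal from transgenic T. cruzi replicating inside host cells; inhibitors lower the luminescence signal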
[3] = NIH3T3 cell viability loss – ATP luminescence, mouse fibroblasts, counter-screen, dose response (AID 2010); assay type: functional, cell-based;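 also: cells exposed to compound for about 90 hours before reading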
[4] = system: Streptococcus sp. 'group A'; experiment: Streptococcus pyogenes SK(-)GAS viability under kanamycin – luminescence, BacTiterGlo, confirmation, counter-screen for streptokinase expression inhibitor project, dose response (AID 1900); assay type: functional, organism-based
Streptococcus = experiment: GAS UMAA2166 growth inhibition – luminescence, BacTiterGlo, counter-screen for streptokinase expression inhibitor project, dose response (AID 1915); assay type: functional, organism-based;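 also: potency for reduction of bacterial viability or growth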

Compound: CCc1ccccc1NC(=O)C(C)n1nc([N+](=O)[O-])c(Br)c1C (centres undefined)
- AC50 (Cytochrome P450 1A2): 28.2 µM (inconclusive)

Compound: Clc1ccc(-c2noc(CN3CCCCC3)n2)cc1
- AC50 (Cytochrome P450 2D6): 3.16 µM (inconclusive)

Compound: CCCn1c(=O)c2[nH]c(C3CCCC3)nc2n(CCCOC(=O)c2ccc(S(=O)(=O)F)cc2)c1=O
- AC50 (Cytochrome P450 2C9): 3.16 µM (inconclusive)
- AC50 (Cytochrome P450 3A4): 3.16 µM (inconclusive)

Compound: c1ccc2c([C@@H]3CCN(CCN4CCOCC4)C3)c[nH]c2c1
- AC50 (Cytochrome P450 2D6): 3.98 µM (inconclusive)

Compound: CC(C)COP(=O)(OCC(C)C)C(O)c1ccccc1F (centres undefined)
- AC50 (Cytochrome P450 3A4): 3.98 µM (inconclusive)

Compound: COc1ccc(-c2nc3cnc(N4CCOCC4)nc3n(Cc3cccs3)c2=O)cc1
- AC50 (Cytochrome P450 1A2): 2.51 µM (inconclusive)

Compound: CCCc1c(O)c2ccccc2n(-c2ccccc2)c1=O
- AC50 (Cytochrome P450 2C9): 12.6 µM (inconclusive)
- AC50 (Cytochrome P450 3A4): 22.4 µM (inconclusive)

Compound: CCOc1ccc(-n2c(SCC(=O)Nc3ccc(OC)cc3OC)nc3c(c2=O)SCC3)cc1
- AC50 (Cytochrome P450 3A4): 15.8 µM (inconclusive)

Compound: CCC(=O)NCc1c(Cl)cccc1-n1cccc1
- AC50 (Cytochrome P450 2C9): 15.8 µM (inconclusive)
- AC50 (Cytochrome P450 3A4): 25.1 µM (inconclusive)
- AC50 (Cytochrome P450 2D6): 15.8 µM (inconclusive)

Compound: COc1cccc(CNc2ccc(F)c(Cl)c2)c1O
- AC50 (Cytochrome P450 3A4): 35.5 µM (inconclusive)

Compound: CCNc1ncc2nc(-c3cc(F)cc(F)c3)c(=O)n(CCC#N)c2n1
- AC50 (Cytochrome P450 1A2): 0.794 µM (inconclusive)

Compound: c1ccc([C@@H]2CN3CCSC3=N2)cc1 [DEXAMISOLE]
- AC50 (Cytochrome P450 2D6): 31.6 µM (inconclusive) and 10 µM (inconclusive) and 20 µM (inconclusive)

Compound: CCCCCn1/c(=N/C(=O)c2cccnc2)c(C#N)cc2c(=O)n3cccc(C)c3nc21
- EC50 [1]: > 53 µM (inactive)

Compound: O=[N+]([O-])c1cc(Cc2cc([N+](=O)[O-])c3cccnc3c2O)c(O)c2ncccc12
- AC50 (Cytochrome P450 2C9): 5.01 µM (inconclusive)
- AC50 (Cytochrome P450 2D6): 3.98 µM (inconclusive)

Compound: COC(=O)c1cc(NC(=O)CC2NC3CCCCC3NC2=O)cc(C(=O)OC)c1 (centres undefined)
- AC50 (Cytochrome P450 2C9): 12.6 µM (inconclusive)

Compound: CCCCC[C@H](O)c1cccc(OCc2ccc3ccccc3n2)c1
- AC50 (Cytochrome P450 2C9): 31.6 µM (inconclusive)

Compound: O=C(Oc1ccccc1)N1CCC2(CCCN(C(c3ccccc3)c3ccccc3)C2)CC1
- AC50 (Cytochrome P450 2C9): 2 µM (inconclusive)

Compound: CCCN1CN=C(S)N(c2cccc(C)c2C)C1
- AC50 (Cytochrome P450 3A4): 15.8 µM (inconclusive)

Compound: O=C(CSc1nnc(Cc2cc(O)nc(O)n2)n1-c1ccccc1)N1CCCc2ccccc21
- AC50 (Cytochrome P450 3A4): 15.8 µM (inconclusive)

Compound: COc1ccc2[nH]cc(CCNc3ccnc(-c4ccccc4C)n3)c2c1
- AC50 (Cytochrome P450 2C9): 1.26 µM (inconclusive)

Compound: O=C(OC(c1ccccc1)c1nccc2ccccc12)c1cc([N+](=O)[O-])cc([N+](=O)[O-])c1 (centres undefined)
- EC50 [2]: 1.01 µM (active)
- EC50 [3]: > 60 µM (not active)

Compound: C=CCc1cccc(C2Nc3ccccc3C(=O)N2O)c1O (centres undefined)
- AC50 (Cytochrome P450 2D6): 0.355 µM (inconclusive)

Compound: CCOC(=O)c1cc2c(=O)n3ccccc3nc2n(C(C)C)/c1=N/C(=O)c1c(-c2c(F)cccc2Cl)noc1C
- EC50 [2]: 2.18 µM (active)
- EC50 [3]: > 60 µM (inconclusive)

Compound: CCCCCCCCCn1cc(C(C)=O)c(=O)[nH]c1=O
- AC50 (Cytochrome P450 1A2): 14.1 µM (inconclusive)

Compound: Cn1c(C(=O)O)c(CC(=O)NCc2cccnc2)c2ccccc21
- AC50 (Cytochrome P450 1A2): 10 µM (inconclusive)

Compound: O=C(O)c1ccccc1C1c2ccccc2Oc2ccccc21
- AC50 (Cytochrome P450 2C9): 3.98 µM (inconclusive)

Compound: C[C@@H]1C[C@H](C)CN(S(=O)(=O)c2cc(Cl)c(Oc3ccc([N+](=O)[O-])cc3Cl)c(Cl)c2)C1
- AC50 (Cytochrome P450 2C9): 6.31 µM (inconclusive)

Compound: CCOC(=O)CN(C(=O)CCC(=O)Nc1cc(C)on1)C(C(=O)NC1CCCC1)c1cccnc1 (centres undefined)
- AC50 (Cytochrome P450 2C9): 17.8 µM (inconclusive)

Compound: NCCNS(=O)(=O)c1cccc2cnccc12
- AC50 (Cytochrome P450 3A4): 20 µM (inconclusive) and 39.8 µM (inconclusive)
- AC50 (Cytochrome P450 2D6): 7.94 µM (inconclusive) and 25.1 µM (inconclusive)

Compound: O=C(Nc1ncc(Cc2ccccc2Cl)s1)c1ccc(-c2cccc([N+](=O)[O-])c2)o1
- EC50 [2]: 1.57 µM (active)
- EC50 [3]: > 60 µM (inconclusive)

Compound: Cc1cnc(CNc2nc(-c3ccc(N(C)C)cc3)nc3ccccc23)cn1
- AC50 (Cytochrome P450 2D6): 39.8 µM (inconclusive)

Compound: Cc1cccc(C(CC(=O)N2CCCC2)c2ccccc2)c1O (centres undefined)
- AC50 (Cytochrome P450 1A2): 15.8 µM (inconclusive)

Compound: Nc1nonc1-c1nc2ccccc2n1CC(=O)N/N=C\c1ccc(-c2ccc(Cl)cc2)o1
- EC50 [4]: 1.02 µM (active)
- EC50 (Streptococcus): 2.38 µM (active)

Compound: O=C(NC(N1CCOCC1)C(Cl)(Cl)Cl)c1cc([N+](=O)[O-])cc([N+](=O)[O-])c1 (centres undefined)
- EC50 [2]: 0.9 µM (active)
- EC50 [3]: > 60 µM (not active)

Compound: Nc1nc(Nc2ccccc2)nc2c1ncn2[C@@H]1O[C@@H](CO)[C@H](O)[C@@H]1O
- AC50 (Cytochrome P450 1A2): 31.6 µM (inconclusive)

Compound: Cc1nc(O)c2nsc(C(=O)Nc3ccc(N4CCCC(O)C4)cc3)c2n1 (centres undefined)
- EC50 [4]: 3.32 µM (active)
- EC50 (Streptococcus): > 150 µM (not active)

Compound: CN(Cc1ccco1)c1ncnc2ccc(-c3ccccc3Cl)cc12
- AC50 (Cytochrome P450 2C9): 1.58 µM (inconclusive)

Compound: COC(=O)[C@@]1(Cc2ccc(OC)cc2)[C@H]2c3cc(C(=O)N(C)C)n(CCc4ccc(OC)c(Br)c4)c3C[C@H]2CN1C(=O)c1ccccc1
- AC50 (Cytochrome P450 2D6): 0.0501 µM (inconclusive)

Compound: Cc1cc(COC(=O)C2N3C(=O)[C@@H](NC(=O)COc4ccccc4)[C@H]3SC2(C)C)on1 (some centres undefined)
- EC50 [4]: 0.175 µM (active)
- EC50 (Streptococcus): 0.384 µM (active)

Compound: CCN1CCN(c2cc(C)c3cc(NC(=O)Cc4ccccc4OC)ccc3n2)CC1
- EC50 [2]: 1.14 µM (active)
- EC50 [3]: > 60 µM (not active)

Compound: CCCC(=O)Nc1ccc(C(=O)NNC(=S)NC(=O)c2cccs2)cc1
- AC50 (Cytochrome P450 2D6): 39.8 µM (inconclusive)

Compound: CCCCn1c(SCc2c(C)noc2C)nc2cc(S(N)(=O)=O)ccc21
- AC50 (Cytochrome P450 1A2): 6.31 µM (inconclusive)

Compound: CC(C)CCc1noc(CN(C)CC2CCN(Cc3ccccc3)CC2)n1
- EC50 [2]: 1.47 µM (active)
- EC50 [3]: > 60 µM (not active)

Compound: CN(C)c1nc2c(c(=O)[nH]c(=O)n2C)n1Cc1ccccc1Br
- AC50 (Cytochrome P450 2C9): 0.0708 µM (inconclusive)
- AC50 (Cytochrome P450 2D6): 25.1 µM (inconclusive)
- AC50 (Cytochrome P450 1A2): 28.2 µM (inconclusive)

Compound: CCO[C@@H]1OC(C(=O)N2CCN(Cc3ccc4c(c3)OCO4)CC2)=C[C@H](C2CCCCC2)[C@H]1CCCO
- EC50 [2]: 1.01 µM (active)
- EC50 [3]: > 60 µM (not active)

Compound: CO/C(O)=C1\C(C)=NC(C)=C([N+](=O)[O-])[C@@H]1c1ccccc1C(F)(F)F
- AC50 (Cytochrome P450 1A2): 39.8 µM (inconclusive)

Compound: CCn1cc(CN2CCCC(C(=O)c3ccc(-c4ccccc4)c(F)c3)C2)cn1 (centres undefined)
- EC50 [2]: 0.569 µM (active)
- EC50 [3]: > 60 µM (not active)

Compound: O=c1onc(-c2cccs2)n1Cc1ccccc1
- AC50 (Cytochrome P450 2C9): 31.6 µM (inconclusive)

Compound: Cc1ccc(NC(=O)C2CCN(c3cnccn3)CC2)cc1C
- EC50 [2]: 1.55 µM (active)
- EC50 [3]: > 60 µM (not active)

Compound: Cc1nn(-c2ccccc2)c(N2CCCC2)c1/C=N/NC(=O)c1cc(-c2ccccc2)nc2ccccc12
- EC50 [2]: 1.96 µM (active)
- EC50 [3]: > 60 µM (not active)

Compound: Clc1ccccc1-c1ccc2ncnc(NC3CCNCC3)c2c1
- AC50 (Cytochrome P450 2D6): 20 µM (inconclusive)
- AC50 (Cytochrome P450 1A2): 15.8 µM (inconclusive)

Compound: Cc1nn(Cc2ccc(Cl)cc2)c(C)c1NC(=O)Cn1nc([N+](=O)[O-])c(Cl)c1C
- AC50 (Cytochrome P450 3A4): 1.12 µM (inconclusive)

Compound: Cc1ccc(-n2nnnc2SCC(=O)c2cc(C)n(CC3CCCO3)c2C)cc1 (centres undefined)
- EC50 [2]: 0.479 µM (active)
- EC50 [3]: > 30 µM (not active)

Compound: COc1ccc2[nH]c(C)c(CCN(Cc3cccs3)C(S)=Nc3ccccc3OC)c2c1
- EC50 [2]: 2.08 µM (active)
- EC50 [3]: > 60 µM (not active)

Compound: CC(C(=O)Nc1ccccc1Sc1ccccc1)N(c1ccccc1)S(C)(=O)=O (centres undefined)
- AC50 (Cytochrome P450 2D6): 25.1 µM (inconclusive)
